US7575640B2, “Method for producing sugar and sugar-containing products from sugar-containing plant raw materials” (Zuckerforschung Tulln Gesellschaft m.b.H., priority 2003, dated 2009)
Converted amounts (≈) assume the structure as drawn. Read-outs that look alike come from different tables or passages of the source.

Key:
thermophilic bacteria [1] = assay: pH drop (acid formation) in liquid culture medium inoculated with crude juice from sugar beet extraction, 65° C.; assay type: cell-based, thermophilic bacteria (mixed culture); conditions: 65° C.; for pH / ΔpH/h: 10 mg/l added at pH 6.47 (5.10 h)
Experimental: If a sugar-containing substrate, e.g. a sugar-containing liquid culture medium, as it is common in microbiology, is either non-sterilized or incubated after inoculation with a bacterial strain, an acid formation will occur which is the easiest to recognize by a drop in the pH. The same phenomenon will occur when incubating normal sugar-containing plant juices, e.g. beet juice. In an industrial process, e.g. in the recovery of sugar juice from sugar beets, a drop in the pH by degradation of sugar means a loss of sugar and a need for an alkalizing agent. Moreover, a drop in the pH with an increase in the germ content in the substrate often is associated with an unpleasant gas and nitrite formation.
(§1) A liquid culture medium, as commonly used in microbiology and consisting of 10 g of Bacto-peptone, 5 g of meat extract, 5 g of yeast extract, 1 g of glucose, 1 g of K2HPO4, 0.1 g of MgSO4*7H2O and 0.01 g of FeSO4*7H2O per liter of distilled water, is sterilized in conventional manner for 20 min at 120° C. and inoculated, in a vessel kept at a temperature of 65° C., with 20 ml of crude juice from a large-scale sugar beet extraction, wherein the pH is registered on a recorder. Upon the growth of thermophilic bacteria, the pH drops progressively. This indicates a microorganism-caused acid formation.
A mixed culture according to Example 1 is prepared.

mesophilic mixed culture = assay: pH drop in mixed culture incubated at 35° C.; assay type: cell-based
Experimental: as §1
A mixed culture according to Example 1 is prepared, yet incubated at 35° C. A pH drop starting after 5 hours cannot be stopped by 11 successive additions of 1 ml of a 1% alcoholic solution of myristic acid per liter culture, corresponding to 110 mg/l, and a further addition of 4 ml, i.e. in sum 150 mg/l.

yeasts = assay: efficacy relative to yeasts; assay type: cell-based; conditions: compared with thermophilic bacteria
[2] = system: pure culture strain DSMZ 457; assay: pH drop in liquid culture medium inoculated with pure culture strain; assay type: cell-based
Experimental: as §1
A liquid culture medium, as in Example 1, is inoculated with a pure culture strain DSMZ 457 of the Deutsche Sammlung für Mikroorganismen und Zellkulturen GmbH. A pH drop starting after 1 hour can be stopped by two additions of 0.2 ml of a 1% alcoholic solution of myristic acid (C14), corresponding to a concentration of merely 4 mg/l. After 4 hours, a renewed pH drop starts which can be stopped for further 7 hours by a further addition of 2 mg/l, i.e. in sum 6 mg/l.

thermophilic bacteria [3] = assay: determination of MIC by stepwise addition until stabilization of the pH, 65° C.; assay type: cell-based, thermophilic bacteria (mixed culture)
Experimental: To illustrate the antimicrobial activity within the scope of sugar production, examples are carried out with […] compounds by way of example. […] Upon the growth of thermophilic bacteria, the pH drops progressively. This indicates a microorganism-caused acid formation. […] The fatty acid compounds used in this Example are myristic acid and lauric acid, and their potassium salts, respectively. In this case, the acids were used both individually and in a 1:1 mixture, the salts were exclusively used in a 1:1 mixture.

[4] = Time 6.25 h, 11×10 and 1×40 mg/l being added between pH 6.55 and 6.30
[5] = Time 6.50 h, 11×10 and 1×40 mg/l added between pH 6.55 and 6.30
[6] = Time 4.50 h, 2×2 mg/l added between pH 6.81 and 6.51

CCCCCCCCCCCCCC(=O)O [myristic acid]
duration of effectiveness (pH drop stopped) (thermophilic bacteria [1]; 10 mg/l, mixed culture): at least 14 h
effect on pH drop (thermophilic bacteria [1]; 10 mg/l, mixed culture): suddenly and lastingly stopped
pH (thermophilic bacteria [1]; Time 5.50 h): 6.47
ΔpH/h (thermophilic bacteria [1]; Time 5.50 h): 0.00
pH (thermophilic bacteria [1]; Time 6 h): 6.47
ΔpH/h (thermophilic bacteria [1]; Time 6 h): 0.00
pH (thermophilic bacteria [1]; Time 7 h): 6.48
ΔpH/h (thermophilic bacteria [1]; Time 7 h): −0.01
pH (thermophilic bacteria [1]; Time 10 h): 6.50
ΔpH/h (thermophilic bacteria [1]; Time 10 h): −0.01
pH (thermophilic bacteria [1]; Time 13 h): 6.53
ΔpH/h (thermophilic bacteria [1]; Time 13 h): −0.01
pH (thermophilic bacteria [1]; Time 16 h): 6.55
ΔpH/h (thermophilic bacteria [1]; Time 16 h): −0.01
pH (thermophilic bacteria [1]; Time 19 h): 6.53
ΔpH/h (thermophilic bacteria [1]; Time 19 h): 0.01
pH (mesophilic mixed culture; [4]): 6.41
ΔpH/h (mesophilic mixed culture; [4]): 0.56
pH (mesophilic mixed culture; [5]): 6.30
ΔpH/h (mesophilic mixed culture; [5]): 0.44
pH (mesophilic mixed culture; Time 6.75 h, in sum 150 mg/l): 6.19
ΔpH/h (mesophilic mixed culture; Time 6.75 h, in sum 150 mg/l): 0.44
pH (mesophilic mixed culture; Time 7.00 h, in sum 150 mg/l): 6.06
ΔpH/h (mesophilic mixed culture; Time 7.00 h, in sum 150 mg/l): 0.52
pH (mesophilic mixed culture; Time 7.25 h, in sum 150 mg/l): 5.94
ΔpH/h (mesophilic mixed culture; Time 7.25 h, in sum 150 mg/l): 0.48
concentration that stops the pH drop (mesophilic mixed culture; pH drop cannot be stopped): > 150 mg/l
efficacy relative to yeasts (yeasts): markedly lower efficacy
time until renewed pH drop ([2]; 4 mg/l): 4 hours
pH [2, 6]: 6.51
ΔpH/h [2, 6]: 0.60
pH ([2]; Time 5 h, 4 mg/l): 6.50
ΔpH/h ([2]; Time 5 h, 4 mg/l): 0.02
pH ([2]; Time 6 h, 4 mg/l): 6.51
ΔpH/h ([2]; Time 6 h, 4 mg/l): −0.01
pH ([2]; Time 7 h, 4 mg/l): 6.51
ΔpH/h ([2]; Time 7 h, 4 mg/l): 0.00
pH ([2]; Time 8 h, 4 mg/l): 6.51
ΔpH/h ([2]; Time 8 h, 4 mg/l): 0.00
pH ([2]; Time 9 h, 4 mg/l): 6.48
ΔpH/h ([2]; Time 9 h, 4 mg/l): 0.03
ΔpH/h ([2]; Time 10.2 h, 4 mg/l, further 2 mg/l added at pH 6.39): 0.08
pH ([2]; Time 10.2 h, 4 mg/l, further 2 mg/l added at this pH): 6.39
pH ([2]; Time 11 h, in sum 6 mg/l): 6.39
ΔpH/h ([2]; Time 11 h, in sum 6 mg/l): 0.00
pH ([2]; Time 12 h, in sum 6 mg/l): 6.39
ΔpH/h ([2]; Time 12 h, in sum 6 mg/l): 0.00
pH ([2]; Time 13 h, in sum 6 mg/l): 6.39
ΔpH/h ([2]; Time 13 h, in sum 6 mg/l): 0.00
pH ([2]; Time 14 h, in sum 6 mg/l): 6.39
ΔpH/h ([2]; Time 14 h, in sum 6 mg/l): 0.00
pH ([2]; Time 15 h, in sum 6 mg/l): 6.39
ΔpH/h ([2]; Time 15 h, in sum 6 mg/l): 0.00
further time pH drop stopped ([2]; further 2 mg/l, in sum 6 mg/l): 7 hours
concentration that stops the pH drop ([2]; two additions of 2 mg/l, pure culture): 4 mg/l
MIC (thermophilic bacteria [3]; dissolved in ethanol, 10 mg/l steps, maximum 150 mg/l, 65° C., read-out: Min. Inhibitory Conc. (MIC)): 10 µg/mL (≈ 43.8 µM)
MIC (thermophilic bacteria [3]; dissolved in ethanol, steps of 2 mg/l, read-out: Min. Inhibitory Conc. (MIC)): 6 µg/mL (≈ 26.3 µM)
MIC (thermophilic bacteria [3]; text summary of Example 9, read-out: MIC (concentration successfully used)): 6000 µg/mL (≈ 26300 µM)
